Measured values published in BigSolDB 2.1.

O=S(=O)([O-])NC1CCCCC1.[Na+]
Details	solubility (mole fraction)
in DMF, 283.15 K	3.1e-05
in DMF, 288.14 K	0.000121
in DMF, 293.17 K	0.000214
in DMF, 298.15 K	0.000364
in DMF, 303.13 K	0.00051
in DMF, 308.15 K	0.000724
in DMF, 313.14 K	0.00095
in DMF, 318.13 K	0.00119
in DMF, 323.17 K	0.00141
in DMSO, 293.13 K	0.000997
in DMSO, 298.15 K	0.00226
in DMSO, 303.14 K	0.00433
in DMSO, 308.15 K	0.00792
in DMSO, 313.16 K	0.0117
in DMSO, 318.15 K	0.0154
in DMSO, 323.2 K	0.0183
in DMSO, 328.15 K	0.0198
in DMSO, 333.17 K	0.0203
in acetic acid, 293.15 K	0.0037
in acetic acid, 298.14 K	0.00501
in acetic acid, 303.15 K	0.00649
in acetic acid, 308.17 K	0.00753
in acetic acid, 313.15 K	0.00877
in acetic acid, 318.13 K	0.0103
in acetic acid, 323.15 K	0.0115
in acetic acid, 328.17 K	0.0128
in acetic acid, 333.2 K	0.0134
in formamide, 283.13 K	0.0319
in formamide, 288.15 K	0.0391
in formamide, 293.16 K	0.0438
in formamide, 298.17 K	0.0472
in formamide, 303.15 K	0.0506
in formamide, 308.14 K	0.0526
in formamide, 313.15 K	0.0543
in formamide, 318.12 K	0.0554
in formamide, 323.15 K	0.0567
in formic acid, 283.13 K	0.016
in formic acid, 288.13 K	0.0179
in formic acid, 293.1 K	0.0209
in formic acid, 299.12 K	0.0239
in formic acid, 303.15 K	0.0275
in formic acid, 308.17 K	0.0319
in formic acid, 313.13 K	0.037
in formic acid, 318.2 K	0.0424
in formic acid, 323.15 K	0.0487
in methanol, 283.1 K	0.00271
in methanol, 288.15 K	0.00295
in methanol, 293.24 K	0.00314
in methanol, 298.1 K	0.00331
in methanol, 303.15 K	0.00352
in methanol, 308.2 K	0.00376
in methanol, 313.19 K	0.00405
in methanol, 318.2 K	0.00436
in methanol, 323.15 K	0.00467
in water, 283.13 K	0.0152
in water, 288.17 K	0.0166
in water, 293.15 K	0.018
in water, 298.14 K	0.02
in water, 303.17 K	0.0233
in water, 308.13 K	0.0284
in water, 313.15 K	0.0363
in water, 318.14 K	0.0461
in water, 323.15 K	0.0512
